The results in this text go back to article PMC8252068, “Biochemical Investigation of the Interaction of pICln, RioK1 and COPR5 with the PRMT5–MEP50 Complex” (Chembiochem, 2021).

Where a SMILES comes first, the peptide text is derived from it. Side-chain parts run from the residue outwards. The star is where a group is joined. FITC = O=C1OC2(c3ccc(O)cc3Oc3cc(O)ccc32)c2ccc(NC(=S)*)cc21; AEEA = NCCOCCOCC(=O)O

The target in the first test is T1, native PRMT5–MEP50 complex (Homo sapiens, UniProt O14744+Q9BQA1).
T1 construct: Full‐length PRMT5–MEP50; 6His-MBP with 3C site (N, cleaved yes); made in house; host or cells: HighFive insect cells (flashBAC baculovirus system)
T1 sequence (O14744 whole entry): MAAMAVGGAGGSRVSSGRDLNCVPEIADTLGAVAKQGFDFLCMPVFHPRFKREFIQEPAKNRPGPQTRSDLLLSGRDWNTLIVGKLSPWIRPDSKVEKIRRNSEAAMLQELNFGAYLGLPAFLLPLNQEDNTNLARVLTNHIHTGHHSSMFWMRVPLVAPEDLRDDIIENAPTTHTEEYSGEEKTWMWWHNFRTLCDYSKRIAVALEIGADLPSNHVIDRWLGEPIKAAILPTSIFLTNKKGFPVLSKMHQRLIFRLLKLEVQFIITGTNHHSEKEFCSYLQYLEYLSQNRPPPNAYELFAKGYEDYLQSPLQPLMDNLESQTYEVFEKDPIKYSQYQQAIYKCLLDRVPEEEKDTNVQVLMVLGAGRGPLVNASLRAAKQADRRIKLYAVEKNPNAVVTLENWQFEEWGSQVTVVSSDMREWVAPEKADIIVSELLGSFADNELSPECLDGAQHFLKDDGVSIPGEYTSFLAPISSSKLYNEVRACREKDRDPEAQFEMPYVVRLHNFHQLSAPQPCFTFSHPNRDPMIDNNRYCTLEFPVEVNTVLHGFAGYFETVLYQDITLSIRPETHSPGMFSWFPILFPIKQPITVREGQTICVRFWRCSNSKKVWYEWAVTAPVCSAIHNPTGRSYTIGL
T1 sequence (Q9BQA1 whole entry partner): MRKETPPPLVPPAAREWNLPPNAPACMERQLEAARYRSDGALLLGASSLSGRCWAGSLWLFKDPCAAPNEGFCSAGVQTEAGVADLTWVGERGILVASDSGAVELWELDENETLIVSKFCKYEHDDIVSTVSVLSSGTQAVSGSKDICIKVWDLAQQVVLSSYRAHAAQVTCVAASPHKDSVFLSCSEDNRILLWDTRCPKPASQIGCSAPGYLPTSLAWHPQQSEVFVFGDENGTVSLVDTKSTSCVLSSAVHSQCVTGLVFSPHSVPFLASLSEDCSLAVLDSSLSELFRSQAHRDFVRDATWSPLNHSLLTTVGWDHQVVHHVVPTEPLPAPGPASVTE
The experiment in a line: Fluorescence polarisation direct binding assay, full-length PRMT5–MEP50. To be noted: FP using the native PRMT5–MEP50 complex; FITC peptide 1 nM; pH 8.0; 30 min, 20-21 °C; n=3; n.b. = no binding. The source says:
All proteins were expressed at the Protein Chemistry Facility (PCF) based in the MPI Dortmund.
For expression of the proteins, all constructs were subcloned into pOPIN vectors. […]
Expression of full-length human RioK1 tagged with 6NHis-3C and co-expression of full-length human PRMT5 (N-terminal 6His-MBP with 3C) with MEP50 (N-terminal 6His-TRX with 3C), and of TIM barrel (1-292 aa) with MEP50 (both N-terminally tagged with His-TRX with 3C cleavage site) was done using the Flash Bac Expression System (Oxford Expression Technologies, UK) with HighFive insect cells in Gibco Sf-900 III SFM medium. The cells were harvested by centrifugation and lysed.
All proteins were purified at the PCF (MPI Dortmund).
Protein purification was performed on HisTrap FF crude 5 ml Ni-based column, followed by the on-column treatment with 6His-tagged HRV-3C PreScission protease, or in case of the SUMO-tagged TIM barrel, with 6His-tagged SUMO protease. The cleaved proteins were then further purified using gel filtration chromatography with the HiLoad 26/60 Superdex 75 or 200 prep grade column. PRMT5 -MEP50, TIM-MEP50 and TIM barrel were stored in a buffer containing 50 mM HEPES, 250 mM NaCl, 1 mM TCEP with the pH adjusted to 8.0, whereas, pICln was stored in a buffer of 20 mM phosphate, 100 mM NaCl, 5 mM TCEP and pH of 7.5, whereas RioK1 was stored in a buffer of 50 mM Tris, 200 mM NaCl, 10% glycerol, 1 […]
Protein Labelling with Alexa 488
To a protein solution (ca. 1 mg/ml) in 0.2 M bicarbonate buffer with 1 mM TCEP at pH 8.3, was added 10 mM Alexa 488 NHS-ester in DMSO (8 equiv), and the mixture was kept on ice, in darkness, overnight. The protein was washed eight times with buffer (50 mM HEPES, 250 mM NaCl, 1 mM TCEP, 8.0 pH) using an Amicon® Ultra-0.5 mL spin filter. Protein concentration was then determined using the NanoDrop […]
Fluorescence Polarisation (FP)
The assay was performed in a buffer of 50 mM HEPES, 250 mM NaCl, 1 mM TCEP, 0.01% (v/v) Tween 20, pH 8.0, in black, 384 well-plates, with a total volume of 10 μl per well. The analysed, FITC labelled peptides, or Alexa488-labelled pICln or RioK1, were tested at a final concentration of 1 nM, and the appropriate unlabelled protein was titrated as two-fold dilution series. The plates were incubated at 20-21 °C for 30 min in case of FITC -labelled peptides or 1-2h in case of the Alexa488-labelled protein, and analysed on a plate reader using 485 nm excitation and 535 nm emission wavelength. The assay was performed in […]
For the molecule “Fitc‐O2Oc‐SRVVPGQF‐NH2 [compound 6, C-terminally truncated RioK1 derived Fitc-labelled peptide]”, the “K D (Table 2, peptides 1–16)” value is recorded as “n.b”. As for “Ac‐FDDADK(O2Oc‐Fitc)‐NH2 [compound 10, N-terminally truncated, C-terminally labelled RioK1 derived peptide]”, the “K D (Table 2, peptides 1–16)” value was “n.b”. For the molecule “Fitc‐O2Oc‐TPTVAGQF‐NH2 [compound 14, C-terminally truncated pICln derived Fitc-labelled peptide]”, the “K D (Table 2, peptides 1–16)” value was “n.b”.

The same test, now with this note: FP using the native PRMT5–MEP50 complex; FITC peptide 1 nM; pH 8.0; 30 min, 20-21 °C; n=3; n.b. = no binding; read-out: K D (Table 2, peptides 1–16).
`CC(=O)NCC(=O)N[C@@H](CCC(N)=O)C(=O)N[C@@H](Cc1ccccc1)C(=O)N[C@@H](CC(=O)O)C(=O)N[C@@H](CC(=O)O)C(=O)N[C@@H](C)C(=O)N[C@@H](CC(=O)O)C(=O)N[C@@H](CCCCNC(=O)COCCOCCNC(=S)Nc1ccc2c(c1)C(=O)OC21c2ccc(O)cc2Oc2cc(O)ccc21)C(N)=O` [compound 9] (Ac-GQFDDADK([AEEA-FITC])-NH2): the Kd was more than 5 µM. As to `CSCC[C@H](NC(=O)[C@H](CC(C)C)NC(=O)[C@H](CC(C)C)NC(=O)COCCOCCNC(=S)Nc1ccc2c(c1)C(=O)OC21c2ccc(O)cc2Oc2cc(O)ccc21)C(=O)N[C@@H](CO)C(=O)N[C@@H](CCCNC(=N)N)C(=O)N[C@H](C(=O)N[C@H](C(=O)N1CCC[C@H]1C(=O)NCC(=O)N[C@@H](CCC(N)=O)C(=O)N[C@@H](Cc1ccccc1)C(=O)N[C@@H](CC(=O)O)C(=O)N[C@@H](CC(=O)O)C(=O)N[C@@H](C)C(=O)N[C@@H](CC(=O)O)C(N)=O)C(C)C)C(C)C` [compound 12] ({FITC-AEEA}-LLMSRVVPGQFDDAD-NH2), the Kd stood at 0.192 ± 0.026 µM. As for `CC(C)[C@H](NC(=O)[C@H](CCCNC(=N)N)NC(=O)[C@H](CO)NC(=O)COCCOCCNC(=S)Nc1ccc2c(c1)C(=O)OC21c2ccc(O)cc2Oc2cc(O)ccc21)C(=O)N[C@H](C(=O)N1CCC[C@H]1C(=O)NCC(=O)N[C@@H](CCC(N)=O)C(=O)N[C@@H](Cc1ccccc1)C(=O)N[C@@H](CC(=O)O)C(=O)N[C@@H](CC(=O)O)C(N)=O)C(C)C` [compound 5] ({FITC-AEEA}-SRVVPGQFDD-NH2), the Kd was more than 5 µM. Take `CSCC[C@H](NC(=O)[C@H](CC(C)C)NC(=O)[C@H](CC(C)C)NC(=O)COCCOCCNC(=S)Nc1ccc2c(c1)C(=O)OC21c2ccc(O)cc2Oc2cc(O)ccc21)C(=O)N[C@@H](CO)C(=O)N[C@@H](CCCNC(=N)N)C(=O)N[C@H](C(=O)N[C@H](C(=O)N1CCC[C@H]1C(=O)NCC(=O)N[C@@H](CCC(N)=O)C(=O)N[C@@H](Cc1ccccc1)C(=O)N[C@@H](CC(=O)O)C(=O)N[C@@H](CC(=O)O)C(=O)N[C@@H](C)C(=O)N[C@@H](CC(=O)O)C(=O)N[C@@H](CO)C(=O)N[C@@H](CO)C(=O)N[C@@H](CC(=O)O)C(N)=O)C(C)C)C(C)C` [compound 13] ({FITC-AEEA}-LLMSRVVPGQFDDADSSD-NH2): the Kd was 0.279 ± 0.041 µM. Regarding `CC(C)[C@H](NC(=O)[C@H](CC(=O)O)NC(=O)[C@H](C)NC(=O)[C@H](CC(=O)O)NC(=O)[C@H](CCC(=O)O)NC(=O)[C@H](Cc1ccccc1)NC(=O)[C@H](CCC(N)=O)NC(=O)CNC(=O)[C@H](C)NC(=O)[C@@H](NC(=O)[C@@H](NC(=O)[C@@H]1CCCN1C(=O)[C@@H](NC(=O)COCCOCCNC(=S)Nc1ccc2c(c1)C(=O)OC21c2ccc(O)cc2Oc2cc(O)ccc21)[C@@H](C)O)[C@@H](C)O)C(C)C)C(=O)N[C@@H](CC(=O)O)C(=O)N[C@@H](Cc1c[nH]cn1)C(N)=O` [compound 15] ({FITC-AEEA}-TPTVAGQFEDADVDH-NH2), the Kd amounted to 0.52 ± 0.04 µM.

For `CC(=O)N[C@@H](CO)C(=O)N[C@@H](CCCNC(=N)N)C(=O)N[C@H](C(=O)N[C@H](C(=O)N1CCC[C@H]1C(=O)NCC(=O)N[C@@H](CCC(N)=O)C(=O)N[C@@H](Cc1ccccc1)C(=O)N[C@@H](CC(=O)O)C(=O)N[C@@H](CC(=O)O)C(=O)N[C@@H](C)C(=O)N[C@@H](CC(=O)O)C(=O)N[C@@H](CCCCNC(=O)COCCOCCNC(=S)Nc1ccc2c(c1)C(=O)OC21c2ccc(O)cc2Oc2cc(O)ccc21)C(N)=O)C(C)C)C(C)C` [compound 7] (Ac-SRVVPGQFDDADK([AEEA-FITC])-NH2), the Kd was 0.716 ± 0.036 µM.
